Laboratory results taken from ChEMBL document CHEMBL5678811 (Invest New Drugs, 2014).
Calls of active or inactive are those of the source. The calls are words filed in the database; no cut-off is given here.

Key:
Calu-6 [1] = assay: Antitumor activity against human Calu-6 cells xenografted in CD1 nu/nu mouse assessed as tumor growth inhibition at 60 mg/kg, […] q3d administered via gavage for 7 days measured twice per week during compound dosing; assay type: functional, organism-based; conditions: time 7.0 day
Calu-6 [2] = assay: Antitumor activity against human Calu-6 cells xenografted in CD1 nu/nu mouse assessed as tumor growth inhibition at 150 mg/kg, […] q3d administered via gavage for 4 days measured twice per week during compound dosing; assay type: functional, organism-based; conditions: time 4.0 day

## Nc1ccn([C@@H]2O[C@H](CO)[C@@H](O)C2(F)F)c(=O)n1
Calu-6 [1]
  TGI: Active
Calu-6 [2]
  TGI: Active
